Laboratory results published in publication PMC8668183 (Biomedicine & Pharmacotherapy, 2021).
Where a name gives a salt, the structure may show the parent alone. Read-outs that look alike come from different tables or passages of the source.

Key:
[1] = system: SARS-CoV-2; conditions: cited from earlier work
[2] = system: SARS-CoV-2; conditions: human prostate cells; cited from earlier work
[3] = system: SARS-CoV-2; conditions: human lung cells; cited from earlier work
[4] = molecular target: CYP2C9 (Homo sapiens, UniProt P11712); assay: Fluorometric CYP2C9 activity assay in human liver microsomes; format: in vitro ADME; conditions: reference inhibitor at 60 µM, human hepatic microsomes
[5] = molecular target: T1, CYP1A2 (Homo sapiens, UniProt P05177); assay: Fluorometric CYP1A2 activity assay in human liver microsomes; format: in vitro ADME; conditions: reference inhibitor at 6 µM, human hepatic microsomes
T1 sequence (P05177 1-516): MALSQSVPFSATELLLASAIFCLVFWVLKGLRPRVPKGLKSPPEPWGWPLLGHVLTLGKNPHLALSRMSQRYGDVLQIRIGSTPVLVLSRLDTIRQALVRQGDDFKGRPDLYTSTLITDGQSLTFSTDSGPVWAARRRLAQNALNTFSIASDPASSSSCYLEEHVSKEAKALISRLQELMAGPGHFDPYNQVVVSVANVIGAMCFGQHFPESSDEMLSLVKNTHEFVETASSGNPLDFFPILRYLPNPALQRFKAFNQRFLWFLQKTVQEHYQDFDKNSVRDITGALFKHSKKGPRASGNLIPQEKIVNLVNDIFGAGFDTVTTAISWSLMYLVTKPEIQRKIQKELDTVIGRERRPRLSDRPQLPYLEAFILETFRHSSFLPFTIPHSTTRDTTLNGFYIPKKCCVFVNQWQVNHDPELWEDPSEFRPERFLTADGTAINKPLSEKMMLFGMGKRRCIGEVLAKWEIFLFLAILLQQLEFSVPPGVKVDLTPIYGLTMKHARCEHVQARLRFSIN

Sequence of CYP2C9 (P11712 whole entry): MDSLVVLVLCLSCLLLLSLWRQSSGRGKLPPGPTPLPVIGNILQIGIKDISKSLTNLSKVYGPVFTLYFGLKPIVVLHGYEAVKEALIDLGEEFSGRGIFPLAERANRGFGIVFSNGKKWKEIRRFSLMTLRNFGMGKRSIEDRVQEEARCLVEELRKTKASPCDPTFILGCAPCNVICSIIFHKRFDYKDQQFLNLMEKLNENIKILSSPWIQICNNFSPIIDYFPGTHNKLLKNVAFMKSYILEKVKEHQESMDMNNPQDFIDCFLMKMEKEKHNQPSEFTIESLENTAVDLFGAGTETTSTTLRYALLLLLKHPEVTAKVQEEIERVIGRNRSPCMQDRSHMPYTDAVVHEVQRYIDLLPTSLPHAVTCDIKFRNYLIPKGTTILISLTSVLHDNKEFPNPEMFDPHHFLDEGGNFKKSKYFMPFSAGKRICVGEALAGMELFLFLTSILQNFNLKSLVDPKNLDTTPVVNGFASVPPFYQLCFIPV

## N=C(N)c1ccc2cc(OC(=O)c3ccc(N=C(N)N)cc3)ccc2c1 [nafamostat mesylate]
[1]
  S protein-mediated fusion and SARS-CoV-2 entry into Calu-3 cells: could block successfully

## CNC(=O)c1ccc(N2C(=S)N(c3ccc(C#N)c(C(F)(F)F)c3)C(=O)C2(C)C)cc1F [enzalutamide]
[2]
  SARS-CoV-2 infection: suppressed mainly in human prostate cells
[3]
  SARS-CoV-2 infection: not in human lung cells

## O=C(O)COc1ccc(C(=O)c2cccs2)c(Cl)c1Cl [tienilic acid]
[4]
  effect on CYP2C9 activity: inhibited

## O=c1cc(-c2ccccc2)oc2c1ccc1ccccc12 [α-naphthoflavone]
[5]
  effect on CYP1A2 activity: suppressed significantly
